This assay deals with CD2F1 mice, L1210 leukemia ip, survival T/C. Kind of assay: NCI In Vivo Anticancer Drug Screen. Data for tumor model L1210 Leukemia (intraperitoneal) in CD2F1 (CDF1) mice. The following applies: higher = longer survival. The essentials:
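Compound-dosed mice with transplantable tumor versus matched vehicle controls; endpoint ratio T/C reported.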

Setting [1] is: endpoint: mean survival time, dose: 25.0 mg/kg/injection, schedule: Q01DX009 (ip), vehicle: saline.
Where [2] appears, read: endpoint: mean survival time, dose: 50.0 mg/kg/injection, schedule: Q01DX009 (ip), vehicle: saline.
Setting [3] is: endpoint: mean survival time, dose: 100.0 mg/kg/injection, schedule: Q01DX009 (ip), vehicle: saline.
Where [4] appears, read: endpoint: mean survival time, dose: 100.0 mg/kg/injection, schedule: Q04DX003 (ip), vehicle: saline with Tween-80.
The mark [5] stands for this setting: endpoint: mean survival time, dose: 200.0 mg/kg/injection, schedule: Q04DX003 (ip), vehicle: saline with Tween-80.
Where [6] appears, read: endpoint: mean survival time, dose: 100.0 mg/kg/injection, schedule: Q01DX009 (ip), vehicle: other.
The mark [7] stands for this setting: endpoint: mean survival time, dose: 200.0 mg/kg/injection, schedule: Q01DX009 (ip), vehicle: other.
The mark [8] stands for this setting: endpoint: mean survival time, dose: 100.0 mg/kg/injection, schedule: Q01DX001 (ip), vehicle: saline with Tween-80.
Where [9] appears, read: endpoint: mean survival time, dose: 100.0 mg/kg/injection, schedule: Q01DX009 (ip), vehicle: saline with Tween-80.
Where [10] appears, read: endpoint: mean survival time, dose: 100.0 mg/kg/injection, schedule: Q04DX002 (ip), vehicle: saline with Tween-80.
Setting [11] is: endpoint: mean survival time, dose: 200.0 mg/kg/injection, schedule: Q01DX001 (ip), vehicle: saline with Tween-80.
[12] abbreviates: endpoint: mean survival time, dose: 200.0 mg/kg/injection, schedule: Q01DX009 (ip), vehicle: saline with Tween-80.
Where [13] appears, read: endpoint: mean survival time, dose: 200.0 mg/kg/injection, schedule: Q04DX002 (ip), vehicle: saline with Tween-80.
Setting [14] is: endpoint: mean survival time, dose: 400.0 mg/kg/injection, schedule: Q01DX001 (ip), vehicle: saline with Tween-80.
[15] abbreviates: endpoint: mean survival time, dose: 400.0 mg/kg/injection, schedule: Q01DX009 (ip), vehicle: saline with Tween-80.
[16] abbreviates: endpoint: mean survival time, dose: 50.0 mg/kg/injection, schedule: Q01DX009 (ip), vehicle: other.
The mark [17] stands for this setting: endpoint: mean survival time, dose: 50.0 mg/kg/injection, schedule: Q01DX009 (ip), vehicle: saline with Tween-80.

Where “and” joins values, the source holds several entries; their conditions need not be identical. Equal entries are not always repeated. Inconclusive results and toxic doses are left out.

Consider `CC(=O)N(C)c1ccc(Nc2cc(C)[nH]c3ccc4ncnc4c23)cc1`, for which the T/C reads like this: (endpoint: mean survival time, dose: 6.25 mg/kg/injection, schedule: Q01DX009 (ip), vehicle: saline) 114 % of control and 110 % of control; (endpoint: mean survival time, dose: 12.5 mg/kg/injection, schedule: Q01DX009 (ip), vehicle: saline) 120 % of control and 110 % of control; under setting [1], 118 % of control and 121 % of control; under setting [2], 119 % of control; under setting [3], 113 % of control and 100 % of control; (endpoint: median survival time, dose: 67.0 mg/kg/injection, schedule: Q01DX005 (ip), vehicle: saline) 156 % of control and 164 % of control. For the same molecule, the T/C (endpoint: median survival time, dose: 100.0 mg/kg/injection, schedule: Q01DX005 (ip), vehicle: saline) is 160 % of control.
As for `CN1CCN(CCSSCCN2CCN(C)CC2)CC1`, the T/C by setting is: (endpoint: mean survival time, dose: 50.0 mg/kg/injection, schedule: Q01DX009 (ip), vehicle: saline sonified) 97 % of control; (endpoint: mean survival time, dose: 100.0 mg/kg/injection, schedule: Q01DX009 (ip), vehicle: saline sonified) 97 % of control; under setting [4], 105 % of control; (endpoint: mean survival time, dose: 200.0 mg/kg/injection, schedule: Q01DX009 (ip), vehicle: saline sonified) 98 % of control; under setting [5], 100 % of control.
As for `OCc1cc(Cl)cc(Cl)c1O`, the T/C reads like this: under setting [6], 93 % of control; (endpoint: mean survival time, dose: 100.0 mg/kg/injection, schedule: Q04DX003 (ip), vehicle: other) 92 % of control; under setting [7], 93 % of control; (endpoint: mean survival time, dose: 200.0 mg/kg/injection, schedule: Q04DX003 (ip), vehicle: other) 92 % of control.
As for `O=C(COc1ccccc1)NC(=S)Nc1nccs1`, the T/C was 87 % of control (endpoint: mean survival time, dose: 25.0 mg/kg/injection, schedule: Q04DX003 (ip), vehicle: saline with Tween-80); 88 % of control and 103 % of control (endpoint: mean survival time, dose: 50.0 mg/kg/injection, schedule: Q04DX003 (ip), vehicle: saline with Tween-80); 97 % of control under setting [8]; 93 % of control and 102 % of control under setting [9]; 98 % of control under setting [10]; 88 % of control and 97 % of control under setting [4]. The T/C runs as follows: under setting [11], 95 % of control; under setting [12], 93 % of control and 104 % of control; under setting [13], 102 % of control; under setting [5], 101 % of control and 108 % of control; under setting [14], 107 % of control; under setting [15], 111 % of control.
For the molecule `CN1NC(c2ccc(Cl)cc2)C2CN(C3CCCCC3)C(=O)C21O` (centres undefined), the T/C runs as follows: under setting [8], 100 % of control; under setting [9], 96 % of control; under setting [11], 96 % of control; under setting [12], 90 % of control; under setting [14], 94 % of control; under setting [15], 88 % of control.
As to `CNC(=S)Nc1ccc(C(=O)NC(C)C)cc1`, the T/C is 100 % of control under setting [16], 95 % of control under setting [6] and 97 % of control under setting [7].
For the molecule `Cc1nnc(NS(=O)(=O)c2ccc(N=Nc3nc4[nH]c(N)nc(=S)c4[nH]3)cc2)s1`, the T/C is, setting by setting: (endpoint: mean survival time, dose: 12.5 mg/kg/injection, schedule: Q01DX009 (ip), vehicle: Klucel (hydroxypropylcellulose) (HPC)) 110 % of control; (endpoint: mean survival time, dose: 25.0 mg/kg/injection, schedule: Q01DX009 (ip), vehicle: Klucel (hydroxypropylcellulose) (HPC)) 116 % of control; (endpoint: mean survival time, dose: 50.0 mg/kg/injection, schedule: Q01DX009 (ip), vehicle: Klucel (hydroxypropylcellulose) (HPC)) 122 % of control.
As to `O=C(O)COc1cc(F)c(Cl)cc1F`, the T/C reads like this: under setting [10], 102 % of control; under setting [13], 105 % of control; (endpoint: mean survival time, dose: 400.0 mg/kg/injection, schedule: Q04DX002 (ip), vehicle: saline with Tween-80) 109 % of control.
In the case of `O=C(O)CNCc1ccc2c(c1)OCCO2`, the T/C is 103 % of control (endpoint: mean survival time, dose: 100.0 mg/kg/injection, schedule: Q01DX009 (ip), vehicle: Klucel (hydroxypropylcellulose) (HPC)); 98 % of control (endpoint: mean survival time, dose: 200.0 mg/kg/injection, schedule: Q01DX009 (ip), vehicle: Klucel (hydroxypropylcellulose) (HPC)); 95 % of control (endpoint: mean survival time, dose: 400.0 mg/kg/injection, schedule: Q01DX009 (ip), vehicle: Klucel (hydroxypropylcellulose) (HPC)).
As for `O=C(CCl)n1nc(Cl)c2ccc([N+](=O)[O-])cc21`, the T/C is, setting by setting: (endpoint: mean survival time, dose: 100.0 mg/kg/injection, schedule: Q01DX001 (ip), vehicle: saline) 98 % of control; (endpoint: mean survival time, dose: 200.0 mg/kg/injection, schedule: Q01DX001 (ip), vehicle: saline) 98 % of control.
As for `CC(=O)OC1CCC2(C)C(CCC3C2CC(OC(C)=O)C2(C)C3CCC2C2(C)SCCS2)C1` (centres undefined), the T/C reads like this: (endpoint: mean survival time, dose: 50.0 mg/kg/injection, schedule: Q04DX002 (ip), vehicle: Klucel (hydroxypropylcellulose) (HPC)) 95 % of control; (endpoint: mean survival time, dose: 100.0 mg/kg/injection, schedule: Q04DX002 (ip), vehicle: Klucel (hydroxypropylcellulose) (HPC)) 98 % of control; (endpoint: mean survival time, dose: 200.0 mg/kg/injection, schedule: Q04DX002 (ip), vehicle: Klucel (hydroxypropylcellulose) (HPC)) 88 % of control.
As to `CC(C)(C)C1C=Nn2c(=O)n(-c3ccccc3)c(=O)n21` (centres undefined), the T/C reads like this: (endpoint: mean survival time, dose: 12.5 mg/kg/injection, schedule: Q01DX009 (ip), vehicle: other) 100 % of control; (endpoint: mean survival time, dose: 25.0 mg/kg/injection, schedule: Q01DX009 (ip), vehicle: other) 94 % of control; under setting [16], 101 % of control; under setting [6], 100 % of control; under setting [7], 99 % of control.
With `CN1CCN(Cc2cn(C3CC(O)C(CO)O3)c(=O)[nH]c2=O)c2ccccc21` (centres undefined), the T/C was 93 % of control (endpoint: mean survival time, dose: 12.5 mg/kg/injection, schedule: Q01DX005 (ip), vehicle: distilled water + Tween-80); 93 % of control (endpoint: mean survival time, dose: 25.0 mg/kg/injection, schedule: Q01DX005 (ip), vehicle: distilled water + Tween-80); 93 % of control (endpoint: mean survival time, dose: 50.0 mg/kg/injection, schedule: Q01DX005 (ip), vehicle: distilled water + Tween-80); 103 % of control (endpoint: mean survival time, dose: 100.0 mg/kg/injection, schedule: Q01DX005 (ip), vehicle: distilled water + Tween-80); 93 % of control (endpoint: mean survival time, dose: 200.0 mg/kg/injection, schedule: Q01DX005 (ip), vehicle: distilled water + Tween-80).
For `C[S+]1C=C(c2ccccc2)C=C(c2ccccc2)C1` (centres undefined), under “endpoint: mean survival time, dose: 7.5 mg/kg/injection, schedule: Q01DX001 (ip), vehicle: saline with Tween-80”, the T/C is 114 % of control.
In the case of `Nc1ccc([N+](=O)[O-])cn1`, the T/C (endpoint: mean survival time, dose: 75.0 mg/kg/injection, schedule: Q01DX009 (ip), vehicle: saline with Tween-80) was 94 % of control; the T/C under setting [4] is 107 % of control; the T/C (endpoint: mean survival time, dose: 150.0 mg/kg/injection, schedule: Q01DX009 (ip), vehicle: saline with Tween-80) is 87 % of control; the T/C under setting [5] was 103 % of control; the T/C (endpoint: mean survival time, dose: 300.0 mg/kg/injection, schedule: Q01DX009 (ip), vehicle: saline with Tween-80) is 93 % of control; the T/C (endpoint: mean survival time, dose: 400.0 mg/kg/injection, schedule: Q04DX003 (ip), vehicle: saline with Tween-80) was 96 % of control.
On to `CNC(=O)/C(=C\c1ccccc1)NC(C)=O`, for which the T/C by setting is: under setting [9], 103 % of control; under setting [12], 98 % of control; under setting [15], 98 % of control.
Consider `Cc1cnccc1Br`, for which the T/C by setting is: (endpoint: mean survival time, dose: 25.0 mg/kg/injection, schedule: Q01DX009 (ip), vehicle: water) 96 % of control; (endpoint: mean survival time, dose: 50.0 mg/kg/injection, schedule: Q01DX009 (ip), vehicle: water) 96 % of control; (endpoint: mean survival time, dose: 100.0 mg/kg/injection, schedule: Q01DX009 (ip), vehicle: water) 86 % of control; (endpoint: mean survival time, dose: 200.0 mg/kg/injection, schedule: Q01DX009 (ip), vehicle: water) 90 % of control.
For the molecule `O=S(=O)(O)NC1CCCCC1`, the T/C was 96 % of control under setting [1]; 95 % of control under setting [2]; 91 % of control and 93 % of control under setting [3].
Regarding `O=C1C(=O)c2ccccc2-c2ccccc21`, the T/C under setting [17] was 98 % of control and the T/C under setting [9] was 102 % of control.
Regarding `Cc1cc(NC(=O)NCc2ccc(N3C(N)=NC(N)=NC3(C)C)cc2)ccc1S(=O)(=O)F`, the T/C runs as follows: (endpoint: mean survival time, dose: 12.5 mg/kg/injection, schedule: Q01DX009 (ip), vehicle: saline with Tween-80) 101 % of control; (endpoint: mean survival time, dose: 25.0 mg/kg/injection, schedule: Q01DX009 (ip), vehicle: saline with Tween-80) 106 % of control; under setting [17], 104 % of control; under setting [9], 123 % of control.

These data come from PubChem BioAssay AID256 (DTP/NCI, 2004).
